Assay results: publication PMC9282634, “High-Throughput Crystallography Reveals Boron-Containing Inhibitors of a Penicillin-Binding Protein with Di- and Tricovalent Binding Modes” (Journal of Medicinal Chemistry, 2021)
Like-named read-outs stand apart in the source and are kept apart here.

Key:
PBP3 (PaPBP3) [1] = target: T1, PBP3 (PaPBP3) (Pseudomonas aeruginosa, UniProt G3XD46); experiment: biochemical; parameters: BOCILLIN FL fluorescence anisotropy, residual PBP3 binding after 1 h pre-incubation with compound; conditions: read-out: Residual Activity by BOCILLIN FL FA (%)
T1 construct: gene ftsI; residues 50–579
Protocol: Unless otherwise stated, assays were run in triplicate using a 60 nM purified protein (see above), 30 nM BOCILLIN FL in pH 7 100 mM sodium phosphate buffer, with 0.01% Triton to reduce promiscuous ligand binding[23] and reduce binding of the protein to the plate. Assays were run in triplicate in a volume of 50 μL, in black, flat-bottom, 384-well microplates (Grenier Bio-One, Austria) at 30 °C. The change in FA was measured using a ClarioStar plate reader (BMG Labtech) with polarized filters at excitation: 482–16, emission: F: 530–4, and calculated using MARS software v3.32 (BMG Labtech) using the equation [drawing 1] where Fpara is the fluorescence intensity parallel to the excitation plane and Fperp is fluorescence intensity perpendicular to the excitation plane. Residual activities were determined by pre-incubating the test compound (1024 μM) and protein for 1 h at 30 °C before the reaction was initiated by the addition of BOCILLIN FL. The change in FA after 30 min was compared to the uninhibited control to determine the residual activity. In order to calculate Ki, the compound (at 11 concentrations: 1–1024 μM) and BOCILLIN FL were mixed and the reaction was initiated by the addition of PBP. Also included in the model were progress curves of nine concentrations of PBP (40–110 nM). Inhibition plots with meropenem and ceftazidime were done to ensure the correct parameters for BOCILLIN FL binding were used. Progress curves were analyzed with KinTek, USA, as described;[52],[69] reported errors represent the standard error. The acylation of a PBP by BOCILLIN FL (Figure S1) can be described by a simple one-step model.[52] However, unlike the previous studies, we found it was necessary to include a term (k2) to account for the deacylation of BOCILLIN FL to release a hydrolyzed product (Figure S1). The fluorescence intensity was constant throughout the reaction. Inhibitor binding was modeled as a reversible reaction to form the enzyme–inhibitor complex (Figure S1). Ki was calculated as the ratio of the off-rate koff to the on-rate kon (Figure S1). Table 1 Residual Activities and Kis of Compounds Tested in the BOCILLIN FL Competition Assay for Binding to PaPBP3 and Residual Activities Measured in S2d Turnover Assays ^a a For both BOCILLIN FL FA and S2d assays, residual activities in the presence of a 1 mM inhibitor are a percentage of the activity of the untreated control. Errors are standard errors (n = 3) from independent measurements. b Residual activity measured at 100 μM due to solubility issues at 1 mM. Ki, calculated with 11 concentrations of each compound and determined using global fitting in Kintek Global Explorer.[52],[59]

PBP3 (PaPBP3) [2] = target: T1, PBP3 (PaPBP3); experiment: biochemical; parameters: S2d thioester turnover with DTNB, absorbance 412 nm, residual activity after 1 h pre-incubation; conditions: read-out: Residual Activity by S2d Turnover (%)
Protocol: Residual activities were measured by the ability of a potential inhibitor to hinder hydrolysis of the substrate analogue S2d (2-((benzoyl-D-alanyl)thio)acetic acid) turnover by PaPBP3 as described for other PBPs.[4],[24],[53],[54] Assays were conducted in 50 μL in a 384-well, clear-bottom, black-walled microplate (Greiner Bio-One). PaPBP3 (400 nM) was incubated with 2 mM of each compound for 1 h at 30 °C in 100 mM sodium phosphate, pH 7, supplemented with 0.01% (v/v) triton. A solution of 5,5′-dithiobis-(2-nitrobenzoic acid) and S2d diluted in the same buffer (to give a final concentration in the assay of 1 mM for both reagents) was added to each well to initiate the reaction. The final concentration of protein was 200 nM and the final inhibitor concentration was 1 mM. A ClarioStar plate reader (BMG Labtech) was used to follow the reaction by observing the change in absorbance at 412 nm at 30 °C. […] The initial rate of S2d turnover was calculated using GraphPad prism (Prism 8 for macOS, GraphPad Software LLC) and the standard error calculated from three independent technical replicates. The rate of non-enzymatic S2d hydrolysis was subtracted from each rate to find the corrected rate. For each compound, the ratio of the corrected rate to the untreated control corrected rate was expressed as a percentage to give the residual activity. [drawing 2] Table 1 Residual Activities and Kis of Compounds Tested in the BOCILLIN FL Competition Assay for Binding to PaPBP3 and Residual Activities Measured in S2d Turnover Assays ^a a For both BOCILLIN FL FA and S2d assays, residual activities in the presence of a 1 mM inhibitor are a percentage of the activity of the untreated control. Errors are standard errors (n = 3) from independent measurements. b Residual activity measured at 100 μM due to solubility issues at 1 mM. Ki, calculated with 11 concentrations of each compound and determined using global fitting in Kintek Global Explorer.[52],[59]

PBP3 (PaPBP3) [3] = target: T1, PBP3 (PaPBP3); experiment: crystal structure; BOCILLIN FL fluorescence anisotropy competition (Ki); format: biochemical
PBP3 (PaPBP3) [4] = target: T1, PBP3 (PaPBP3); experiment: biochemical; parameters: BOCILLIN FL competition fluorescence anisotropy, progress curves globally fitted in KinTek to reversible one-step model; conditions: BOCILLIN FL competition
Protocol: Unless otherwise stated, assays were run in triplicate using a 60 nM purified protein (see above), 30 nM BOCILLIN FL in pH 7 100 mM sodium phosphate buffer, with 0.01% Triton to reduce promiscuous ligand binding[23] and reduce binding of the protein to the plate. Assays were run in triplicate in a volume of 50 μL, in black, flat-bottom, 384-well microplates (Grenier Bio-One, Austria) at 30 °C. The change in FA was measured using a ClarioStar plate reader (BMG Labtech) with polarized filters at excitation: 482–16, emission: F: 530–4, and calculated using MARS software v3.32 (BMG Labtech) using the equation [drawing 1] where Fpara is the fluorescence intensity parallel to the excitation plane and Fperp is fluorescence intensity perpendicular to the excitation plane. Residual activities were determined by pre-incubating the test compound (1024 μM) and protein for 1 h at 30 °C before the reaction was initiated by the addition of BOCILLIN FL. […] Progress curves were analyzed with KinTek, USA, as described;[52],[69] reported errors represent the standard error. […] The fluorescence intensity was constant throughout the reaction. […] Ki was calculated as the ratio of the off-rate koff to the on-rate kon (Figure S1). 1–15 were screened for PaPBP3 inhibition at 1 mM using an established fluorescence anisotropy (FA) assay.[52] […]

T1 sequence (G3XD46 50-579): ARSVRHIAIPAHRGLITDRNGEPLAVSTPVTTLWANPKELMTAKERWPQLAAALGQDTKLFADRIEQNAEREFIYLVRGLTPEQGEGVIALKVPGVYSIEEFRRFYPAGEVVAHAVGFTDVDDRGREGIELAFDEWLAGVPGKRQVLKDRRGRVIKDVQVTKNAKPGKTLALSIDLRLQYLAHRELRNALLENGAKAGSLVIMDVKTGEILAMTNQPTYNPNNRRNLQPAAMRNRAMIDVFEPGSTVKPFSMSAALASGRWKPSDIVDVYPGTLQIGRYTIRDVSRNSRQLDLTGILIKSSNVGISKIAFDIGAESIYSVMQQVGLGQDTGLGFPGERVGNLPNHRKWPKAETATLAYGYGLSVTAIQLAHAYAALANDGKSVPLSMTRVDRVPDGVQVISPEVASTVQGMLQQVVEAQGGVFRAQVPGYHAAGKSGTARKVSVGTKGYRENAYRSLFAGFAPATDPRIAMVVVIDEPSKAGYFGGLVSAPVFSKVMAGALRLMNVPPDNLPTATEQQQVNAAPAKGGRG

Row | SMILES | remaining activity at 1000 µM (PBP3 (PaPBP3) [1]) [%] | remaining activity at 1000 µM (PBP3 (PaPBP3) [2]) [%] | Ki (PBP3 (PaPBP3) [3]) [µM] | Ki (PBP3 (PaPBP3) [4]) [µM]
1 | O=C(O)c1ccc2c(c1)B(O)OC2 [compound 3] | 75 ± 1 | 57.8 ± 0.6 |  | 
2 | CNC(=O)CNC(=O)c1ccc2c(c1)B(O)OC2 [compound 5] | > 90 | > 90 |  | 
3 | NC(=O)[C@@H](Cc1ccccc1)NC(=O)c1ccc2c(c1)B(O)OC2 [compound 6] | > 90 | > 90 |  | 
4 | COC(=O)[C@H](NC(=O)c1ccc2c(c1)B(O)OC2)c1ccccc1 [compound 7] | > 90 | > 90 |  | 
5 | O=C1CN(C(=O)[C@@H](Cc2ccccc2)NC(=O)c2ccc3c(c2)B(O)OC3)CCN1 [compound 11] | 84 ± 1 | 80.9 ± 1.3 |  | 
6 | NC(=O)[C@H](NC(=O)c1ccc2c(c1)B(O)OC2CC(=O)O)c1ccccc1 (some centres unmarked) [compound 12, 12] | 16 ± 6 | 19.6 ± 0.4 | 73.9 ± 0.8 | 
7 | CN1CCN(C(=O)CNC(=O)c2ccc3c(c2)B(O)OC3CC(=O)O)CC1=O (centres unmarked) [compound 13, 13] | 42 ± 6 | 47.5 ± 0.6 | 172 ± 3 | 
8 | O=C(O)CC1OB(O)c2ccc(OCc3ccccc3)cc21 (centres unmarked) [compound 15, 2-(5-(Benzyloxy)-1-hydroxy-1,3-dihydrobenzo[c][1,2]oxaborol-3-yl)acetic Acid] |  |  | 78.1 ± 0.9 | 
9 | O=C(O)C[C@@H]1CC[C@H](NC(=O)Cc2cccs2)B(O)O1 [vaborbactam] | 54 ± 5 | 75.8 ± 0.7 |  | 201 ± 2.3
